Assay [1] has as its target T1, β5 subunit of the human constitutive proteasome (CPS) (Homo sapiens, UniProt P28074).
T1 construct: purchased Boston Biochem E-360
Nature of the assay: β5 inhibition assay, human constitutive proteasome (Suc-LLVY-AMC). The assay is classed as biochemical. The note with it: IC50 class, Suc-LLVY-AMC substrate. On the procedure: The enzymatic activity of the β5 subunit of the human constitutive proteasome (CPS) is analyzed. In another assay, which differs from the assay of the human constitutive proteasome only in using the human immunoproteasome (IPS) the enzymatic activity of the β5 subunit of the human immunoproteasome (IPS) is analyzed. […] Inhibition is indicated as IC50 [nM] (“-”=not measured).

The target of assay [2] is T2, β5 subunit of the human immunoproteasome (IPS) (Homo sapiens, UniProt P28062).
T2 construct: purchased Boston Biochem E-370
Nature of the assay: β5 inhibition assay, human immunoproteasome (Suc-LLVY-AMC). It counts as biochemical. Conditions: IC50 class, Suc-LLVY-AMC substrate. On the procedure: The enzymatic activity of the β5 subunit of the human constitutive proteasome (CPS) is analyzed. In another assay, which differs from the assay of the human constitutive proteasome only in using the human immunoproteasome (IPS) the enzymatic activity of the β5 subunit of the human immunoproteasome (IPS) is analyzed. Incubation of the enzyme with its fluorogenic substrate Suc-LLVY-AMC leads to liberation of the fluorescent dye AMC which can be measured with a suitable plate reader. • 100 mM HEPES pH7.5 • 50 mM NaCl • 0.02% SDS • 1 mM DTT (add fresh) • Victor X5 (Perkin Elmer) • Label: Umbeliferone (0.1s) • Excitation wavelength: 355 nm • Emission wavelength: 460 nm • 4 μl human cPS or IPS enzyme in assay buffer (final assay concentration 1 nM) or 4 μl assay buffer for negative controls • Compound addition via acoustic dispenser (Echo 520, Labcyte) • Mix and incubate @ RT for 10 min • 4 μl Suc-LLVY-AMC substrate (final assay concentration 22.6 μM) • Mix and incubate @ RT for 4 h (dark) • Stop reaction with 4 μl Bortezomib (final assay concentration 1 μM) • 15 min @ RT • Measure (Excitation 355 nm; Emission 460 nm)

Assay [3] relates to HT-29 cells. The assay is described as follows: CellTiter-Glo luminescent cell viability assay with HT-29 cells (72h incubation). It counts as cell-based, human. Conditions: Homo sapiens, HT-29, HT29 cells, read-out: CTG HT29. The protocol:
Cell Titer Glo Viability Assay with HT-29 Cells (72h Incubation) The CellTiter-Glo Luminescent Cell Viability Assay (Promega) is a homogeneous method of determining the number of viable cells in culture. It is based on quantification of ATP, indicating the presence of metabolically active cells. On day 1 400 HT-29 cells per well are seeded in white 384well plates (Greiner, #781080) in 25 μl cell culture medium (DMEM (PAN-Biotech #P04-03590)+10% FCS+glutamine). After incubation for 24 h at 37° C./5% CO2 compounds or DMSO are added at different concentrations by Echo Liquid Handling Technology. Cells are further incubated in humidified chambers for 72 h at 37° C. and 5% CO2. Cells treated with the compound vehicle DMSO are used as positive controls and cells treated with 10 μM Staurosporine serve as negative controls. At day 5-72h after compound addition—the CellTiter Glo Reagent is prepared according to the instructions of the kit (Promega Inc.): Reagent is mixed 1:1 with cell culture medium. Thereon, mixture and assay plates are equilibrated at room temperature for 20 min. Equal volumes of the reagent-medium-mixture is added to the volume of culture medium present in each well. The plates are mixed at […] for 2 minutes on an orbital shaker. The microplates are then incubated at room temperature for 10 minutes for stabilization of the luminescent signal. Following incubation the luminescence is recorded on a Victor microplate reader (Perkin Elmer) using a 200 ms integration time. The data is then analyzed with Excel using the XLFIT Plugin (dose response Fit 205) for IC50-determination. As quality control the Z′-factor is calculated from 16 positive and negative control values. […] Inhibition is indicated as IC50 [nM] (“-”=not measured).

The test system of assay [4] is A549 (human lung carcinoma cell line). The assay is described as follows: Glo assay of A549 cells (Table 3; ProteasomeGlo plating scheme). The note with it: Homo sapiens; A549 cells; read-out: PGLo A549. The assay is classed as cell-based. From the text:
Inhibition is indicated as IC50 [nM] (“-”=not measured). […] • Chymotrypsin-Like Cell-Based Proteasome-GloTM Assay (Promega; […]) • Cell culture 384-well plates (Greiner BioOne; 781080) • Dispensing cassette, MultiDrop Standard tube dispensing cassette (Thermo Scientific; 24072670) • DPBS (Pan BioTech; P04-36500) • Cell culture 384-well plates (Greiner BioOne; 781080) • CPD source plate: diamond-shape plate (Labcyte; LP-0200) • Intermediate plate (Labcyte; P-05525) [table] • a. Remove the plates with cells from the incubator. • b. Take all the plates including the compound plate, intermediate plate and Staurosporine plate to the ECHO. • c. Click on “Open” in the ECHO software and select the protocol “QLI5_25ul_30 uM-Grenier”. • d. Follow the on-screen prompts and instructions once you click “Start” to insert the compound plate, intermediate plate and destination plates. • e. Change the final number of destination plates on the program. • f. Follow the on-screen prompts and instructions once you click “Start” to load the Staurosporine and destination plates. • g. Once all the compounds, DMSO and Staurosporine have been transferred, place the destination plates in a wet tissue box. • h. Place the destination plates back into the incubator and incubate at 37° C., 5% CO2 for 105 minutes. • i. Re-seal all the compound+Stauro diamond and intermediate plates and store in the dark. Chymotrypsin like ProteasomeGlo Assay • 1. Thaw the components of the ProteasomeGlo assay at room temperature including the ProteasomeGlo Buffer, the lyophilized Luciferin Detection Reagent and the Suc-LLVY-Glo Substrate. • 2. Reconstitute the Luciferin Detection Reagent in the amber coloured bottle by adding 50 ml of the ProteasomeGlo Buffer. • 3. Vortex the Suc-LLVY-Glo Substrate briefly to reconstitute the Substrate well. • 4. Spin down the Substrate and add 250 μl of the Substrate to the reconstituted Luciferin Detection Reagent from step 2. • 5. Briefly vortex the amber bottle with the mix to prepare a homogenous solution. • 6. Place the mix prepared in step 5 to sit at room temperature for 60 minutes. • 7. After 60 minutes, pipette 25 μl of the mix from step 5 into all wells with the cells. • 8. Shake the plates for 2-5 minutes to ensure the complete mixing of the ProteasomeGlo reagent with the cells. • 9. Leave the plates in the dark for 10-15 minutes. • 10. Measure the luminescence read-out using the Viktor and the protocol “Luminescence_384Well_0.2 sec”. (Note: The Protoeasome-GloTM Reagent (combined Proteasome-GloTM Substrate, Proteasome-GloTM Buffer and Luciferin Detection Reagent) can be stored at 4° C. or -20° C. for 1 month with minimal loss of activity.)

As for `Cc1cc2cc(c1C)CNC(=O)[C@H](CCc1ccccc1)NC(=O)CCC(=O)N1CCCC(CCO2)C1` (stereo partly drawn) [Compound 95, (9S)-5^4,5^5-dimethyl-9-phenethyl-4-oxa-7,10-diaza-1(3,1)-piperidina-5(1,3)-benzenacyclotetradecaphane-8,11,14-trione], the IC50 in assay [1] was less than 100 nM; in assay [2], less than 100 nM; in assay [3] it was 500 to 1000 nM; in assay [4], 1000 to 5000 nM.

Turning to `CC(=O)N[C@H]1CCC(=O)N2CCC2(C)COc2ccc(C)c(c2)CNC(=O)[C@H](CCc2ccccc2)NC1=O` (stereo partly drawn) [Compound 265, N-((8S,11S)-1^2,4^4-dimethyl-7,10,14-trioxo-8-phenethyl-3-oxa-6,9-diaza-1(2,1)-azetidina-4(1,3)-benzenacyclotetradecaphane-11-yl)acetamide], the IC50 in assay [2] is 100 to 500 nM; in assay [3], 100 to 500 nM; in assay [4], greater than 5000 nM.

As for `CC(=O)N[C@H]1CCCC(=O)NCCCCOc2ccc(C)c(c2)CNC(=O)[C@H](CCc2ccccc2)NC1=O` [Compound 269, N-((12S,15S)-1^4-methyl-8,13,16-trioxo-15-phenethyl-2-oxa-7,14,17-triaza-1(1,3)-benzenacyclooctadecaphane-12-yl)acetamide], the IC50 is 1000 to 5000 nM in assay [1], less than 100 nM in assay [2], 1000 to 5000 nM in assay [3] and 1000 to 5000 nM in assay [4].

`Cc1ccc2cc1CNC(=O)[C@H](CCc1ccccc1)NC(=O)[C@@H](NC(=O)Cc1ccc(N)cc1F)CC(=O)N1CCCC(CCO2)C1` (stereo partly drawn) [Compound 318, 2-(4-amino-2-fluorophenyl)-N-((9S,12S)-5^4-methyl-8,11,14-trioxo-9-phenethyl-4-oxa-7,10-diaza-1(3,1)-piperidina-5(1,3)-benzenacyclotetradecaphane-12-yl)acetamide]: the IC50 in assay [1], in assay [2] and in assay [3] was less than 100 nM each time.

Regarding `Cc1ccc2cc1CNC(=O)[C@H](CCc1ccccc1)NC(=O)[C@@H](NC(=O)c1cccc3cc(N)ncc13)CC(=O)N1CCCC(CCO2)C1` (stereo partly drawn) [Compound 319, 3-amino-N-((9S,12S)-5^4-methyl-8,11,14-trioxo-9-phenethyl-4-oxa-7,10-diaza-1(3,1)-piperidina-5(1,3)-benzenacyclotetradecaphane-12-yl)isoquinoline-8-carboxamide], the IC50 in assay [1], in assay [2] and in assay [3] was less than 100 nM in each case.

For the molecule `COC(C(=O)N[C@H]1CC(=O)N2CCCC(CCOc3ccc(C)c(c3)CNC(=O)[C@H](CCc3ccccc3)NC1=O)C2)c1ccc(NC(C)=O)cc1` (stereo partly drawn) [Compound 323, 2-(4-acetamidophenyl)-2-methoxy-N-((9S,12S)-5^4-methyl-8,11,14-trioxo-9-phenethyl-4-oxa-7,10-diaza-1(3,1)-piperidina-5(1,3)-benzenacyclotetradecaphane-12-yl)acetamide], the IC50 in assay [1], in assay [2], in assay [3] and in assay [4] was less than 100 nM each time.

`CCOC(C(=O)N[C@H]1CC(=O)N2CCCC(CCOc3ccc(C)c(c3)CNC(=O)[C@H](CCc3ccccc3)NC1=O)C2)c1ccc(NC(C)=O)cc1` (stereo partly drawn) [Compound 324, 2-(4-acetamidophenyl)-2-ethoxy-N-((9S,12S)-5^4-methyl-8,11,14-trioxo-9-phenethyl-4-oxa-7,10-diaza-1(3,1)-piperidina-5(1,3)-benzenacyclotetradecaphane-12-yl)acetamide]: the IC50 in assay [1], in assay [2], in assay [3] and in assay [4] was less than 100 nM each time.

Turning to `Cc1ccc2cc1CNC(=O)[C@H](CCc1ccccc1)NC(=O)[C@@H](NC(=O)OCc1ccccc1)CC(=O)N1CCC(CCO2)C1` (stereo partly drawn) [Compound 325, benzyl ((9S,12S)-5^4-methyl-8,11,14-trioxo-9-phenethyl-4-oxa-7,10-diaza-1(3,1)-pyrrolidina-5(1,3)-benzenacyclotetradecaphane-12-yl)carbamate], the IC50 in assay [1], in assay [2], in assay [3] and in assay [4] was less than 100 nM in each case.

With `Cc1ccc2cc1CNC(=O)[C@H](CCc1ccccc1)NC(=O)[C@@H](NC(=O)Cc1nc(-c3ccccc3)n[nH]1)CC(=O)N1CCCC(CCO2)C1` (stereo partly drawn) [Compound 328, N-((9S,12S)-5^4-methyl-8,11,14-trioxo-9-phenethyl-4-oxa-7,10-diaza-1(3,1)-piperidina-5(1,3)-benzenacyclotetradecaphane-12-yl)-2-(3-phenyl-1H-1,2,4-triazol-5-yl)acetamide], the IC50 was less than 100 nM in assay [1], less than 100 nM in assay [2], less than 100 nM in assay [3] and 100 to 500 nM in assay [4].

Turning to `Cc1ccc2cc1CNC(=O)[C@H](CCc1ccccc1)NC(=O)[C@@H](NC(=O)Cc1cn3ccsc3n1)CC(=O)N1CCCC(CCO2)C1` (stereo partly drawn) [Compound 330, 2-(imidazo[2,1-b]thiazol-6-yl)-N-((9S,12S)-5^4-methyl-8,11,14-trioxo-9-phenethyl-4-oxa-7,10-diaza-1(3,1)-piperidina-5(1,3)-benzenacyclotetradecaphane-12-yl)acetamide], the IC50 in assay [1], in assay [2], in assay [3] and in assay [4] was less than 100 nM in each case.

Consider `Cc1ccc2cc1CNC(=O)[C@H](CCc1ccccc1)NC(=O)[C@@H](NC(=O)Cc1ccccn1)CC(=O)N1CCCC(CCO2)C1` (stereo partly drawn) [Compound 331, N-((9S,12S)-5^4-methyl-8,11,14-trioxo-9-phenethyl-4-oxa-7,10-diaza-1(3,1)-piperidina-5(1,3)-benzenacyclotetradecaphane-12-yl)-2-(pyridin-2-yl)acetamide], for which the IC50 in assay [1], in assay [2], in assay [3] and in assay [4] was less than 100 nM in each case.

(Values after patent publication US20240415819A1, “MACROCYCLIC COMPOUNDS AS PROTEASOME SUBUNIT BETA TYPE-5 INHIBITORS” (Lead Discovery Center GmbH, priority 2021, published 2024).)
